The structures appear in SMILES notation. Like-named read-outs stand apart in the source and are kept apart here. Where only a bound is given, the exact number is not on record here.

What all share (assay type): cell-based, mouse
Data set [1] can be described thus: In vitro neurotoxicity without glutamate (MTS cell viability). Conditions: mouse, HT22 cells without glutamate, 24 hrs, MTS, concentration producing 50% toxicity, read-out: Toxicity TC50. The method, then: (§1) The HT22 neuronal cell line is a subclone of HT4, derived from the mouse hippocampus (Morimoto and Koshland, 1990). […] HT22 cells were used. The cells were grown in Dulbecco's Modified Eagle's medium (DMEM/high glucose) supplemented with 10% fetal bovine serum (Hyclone) and 5 mL Antibiotic-Antimycotic (Amphotericin B, Penicillin, and Streptomycin; Invitrogen) at 37° C. in 5% CO2.
(§2) Cell viability was assessed by the ability of the viable cells to metabolize 3-(4,5-dimethylthiazol-2-yl)-5-(3-carboxymethoxyphenyl)-2(4-sulfophenyl)2-H-tetrazolium, inner salt (MTS), as described previously (Cory et al., 1991). The metabolism of tetrazolium salts is often used to measure cellular proliferation, but in the system used here, it has been previously shown to correlate well with cell viability as determined by trypan blue exclusion and colony-forming assays (Davis and Maher, 1994). Briefly, HT-22 cells were seeded onto 96-well plates at 5.0×10^3 cells per well in 75 μL of medium and maintained at 37° C. in 5% CO2 overnight prior to the initiation of experimental treatments. For glutamate toxicity testing, cells were subsequently treated with 25 μL of medium containing glutamate (monosodium glutamate, Sigma, 1 M stock concentration in media, to achieve a final concentration of 10 mM) plus inhibitors (stock in DMSO) and maintained at 37° C. in 5% CO2. For t-BuOOH toxicity testing, cells were subsequently treated with 25 μL of medium containing t-BuOOH (Sigma, 10 mM stock concentration, to achieve a final concentration of 50 μM) plus inhibitors (stock in DMSO) and maintained at 37° C. in 5% CO2 for 3 hours, after which the media was removed, cells washed gently with HBSS, the media replaced with standard culture media, and the cells returned to incubation at 37° C. in 5% CO2. For both glutamate and t-BuOOH treatments, 10 μl of MTS solution was added to each well 24 hrs after initial treatment, and the cells were maintained in growth medium for 2 h at 37° C. Absorbance at 490 nm was subsequently measured by a SpectraMax 190 plate reader (Molecular Devices). The growth medium without cells in the presence of MTS solution was used as solution background and untreated cells were considered the controls. Cell viability was calculated as a percentage compared with untreated controls. EC50 determinations were based on 12-point titrations using GraphPad Prism, and each experiment was repeated at least four times. Morphology of HT22 cells following treatments was determined by phase-contrast microscopy. Digital images of cells grown on cell culture plates were captured at 10× magnification.

Data set [2] has as its system HT22 cells. The experiment in a line: In vitro neuroprotective activity against glutamate-induced cell death (MTS cell viability). The conditions noted are these: Mus musculus, read-out: Protection PC50. Here is the method:
as §1, §2
The neuroprotective properties of VK and its derivatives were estimated through their protective effects against cell death in mouse neuronal HT22 cells induced by exposure to high levels of glutamate, which recapitulates a hallmark of the extracellular environment found in several neurodegenerative diseases and CNS injuries and is a well established model of neuronal oxidative stress. This investigation began by comparing the relative abilities of the two predominant naturally occurring forms of VK, VK1 and VK2, to prevent oxidative cell death. […] Several 1,4-naphthoquinones with various substitutions at the 2′ and 3′ positions were tested to determine the minimum structural requirement of the system and what the optimum scaffold for future developmental efforts and biological validation would be (FIG. 1B and Table 1). […] Substitution by a single methyl group at the 2′ position (VK3) improves the compound's ability to protect against cell death. Various other simple substituents at the 2′ and 3′ positions give the naphthoquinone structure the ability to prevent oxidative cell death at nanomolar concentrations (Table 1 and FIG. 16).

The subject of data set [3] is HT22 cells. Put plainly: In vitro neurotoxicity without glutamate (MTS cell viability). The conditions noted are these: for Safety Index TC50/PC50: HT22 cells; for CC50: HT22 cells without glutamate, 24 hrs, MTS, concentration producing 50% toxicity, read-out: Toxicity TC50. The method, then: as §1, §2
Where [4] appears, read: HT22 neuronal cells (without glutamate).
The mark [5] stands for this setting: HT-22, HT22 cells, 10 mM glutamate, 24 hrs, MTS, concentration producing 50% protection.

Regarding `O=C(O)c1cc(=O)c2ccccc2o1`, the CC50 at 24 h in data set [1] (setting [4]) is more than 100000 nM. In the data set with HT22 cells [2] (setting [5]), the EC50 was more than 1000 nM.
On the same counts, the results for `O=C(O)c1coc2ccccc2c1=O` are more than 100000 nM and more than 1000 nM.
On to `O=C(Nc1ccccc1)c1cc(=O)c2ccccc2o1` [4-oxo-N-phenyl-4H-chromene-2-carboxamide], for which, in data set [1] (setting [4]), the CC50 at 24 h was more than 100000 nM. In the data set with HT22 cells [2] (setting [5]), the EC50 is more than 1000 nM.
Consider `O=C(Nc1ccccc1)c1coc2ccccc2c1=O` [4-oxo-N-phenyl-4H-chromene-3-carboxamide], for which, in data set [1] (setting [4]), the CC50 at 24 h is more than 100000 nM. Besides, the EC50 in the data set on HT22 cells [2] (setting [5]) is more than 1000 nM.
For the molecule `O=C1C=CC(=O)c2ccccc21` [Compound 1a, 1,4-naphthoquinone, reference compound], in the data set on HT22 cells [3], the “Safety Index TC50/PC50” value amounted to 12 and the CC50 was 19000 nM. The EC50 in the data set with HT22 cells [2] (setting [5]) was found to be 1540 nM.
For `CC1=C(C)C(=O)c2ccccc2C1=O` [Compound 1c], in the data set on HT22 cells [3], the “Safety Index TC50/PC50” value was 254 and the CC50 is 30000 nM. Moreover, the EC50 in the data set with HT22 cells [2] (setting [5]) is 118 nM.
For the molecule `NC1=CC(=O)c2ccccc2C1=O` [Compound 1d, 2-amino-1,4-naphthoquinone], in the data set on HT22 cells [3], the “Safety Index TC50/PC50” value is on record as 803 and the CC50 came to 49000 nM. Also, the EC50 in the data set on HT22 cells [2] (HT-22, 24 h) was 61 nM.
As for `CC1=C(N)C(=O)c2ccccc2C1=O` [Compound 1e, 2-amino-3-methyl-1,4-naphthoquinone], in the data set with HT22 cells [3], the “Safety Index TC50/PC50” value is on record as 31 and the CC50 was 54000 nM. Besides, the EC50 with HT22 cells [2] (setting [5]) turned out to be 1740 nM.
With `O=C(O)C1=CC(=O)c2ccccc2C1=O` [Compound 1f], in the data set with HT22 cells [3], the “Safety Index TC50/PC50” value turned out to be 140 and the CC50 is more than 100000 nM. For the same molecule, the EC50 with HT22 cells [2] (setting [5]) was found to be 716 nM.
With `O=C1C=C(O)C(=O)c2ccccc21` [Compound 1g], in the data set on HT22 cells [3], the “Safety Index TC50/PC50” value amounted to 100 and the CC50 was more than 100000 nM. For the same molecule, the EC50 in the data set on HT22 cells [2] (HT-22, 24 h) was found to be 1000 nM.
In the case of `CNC1=CC(=O)c2ccccc2C1=O` [Compound 2a, 2-(methylamino)naphthalene-1,4-dione], in the data set on HT22 cells [3], the “Safety Index TC50/PC50” value was found to be 74 and the CC50 is more than 100000 nM. The EC50 in the data set with HT22 cells [2] (setting [5]) is 1350 nM.
For `CCNC1=CC(=O)c2ccccc2C1=O` [Compound 2b, 2-(ethylamino)naphthalene-1,4-dione] the same measures were 106, 81000 nM and 761 nM.
`CC(C)NC1=CC(=O)c2ccccc2C1=O` [Compound 2d, 2-(isopropylamino)naphthalene-1,4-dione]: in the data set with HT22 cells [3], the “Safety Index TC50/PC50” value came out at 27 and the CC50 was found to be 46000 nM. Also, in the data set on HT22 cells [2] (setting [5]), the EC50 was determined as 1700 nM.
Consider `CCCNC1=CC(=O)c2ccccc2C1=O` [Compound 2e, 2-(propylamino)naphthalene-1,4-dione], for which, in the data set on HT22 cells [3], the “Safety Index TC50/PC50” value is recorded as 91 and the CC50 stood at 30000 nM. Also, the EC50 in the data set on HT22 cells [2] (setting [5]) is 328 nM.
For `O=C1C=C(NC2CCCC2)C(=O)c2ccccc21` [Compound 2f, 2-(cyclopentylamino)naphthalene-1,4-dione] the same measures were 108, 44000 nM and 409 nM.
Take `O=C1C=C(NCC2CCCCC2)C(=O)c2ccccc21` [Compound 2g, 2-((cyclohexylmethyl)amino)naphthalene-1,4-dione]: in the data set with HT22 cells [3], the “Safety Index TC50/PC50” value is 1,852 and the CC50 is more than 100000 nM. Besides, the EC50 in the data set with HT22 cells [2] (setting [5]) worked out at 54 nM.
For the molecule `O=C1C=C(Nc2ccccc2)C(=O)c2ccccc21` [Compound 2i, 2-(phenylamino)naphthalene-1,4-dione], in the data set on HT22 cells [3], the “Safety Index TC50/PC50” value was found to be 109 and the CC50 came to 7000 nM. Besides, in the data set with HT22 cells [2] (HT-22, 24 h), the EC50 was found to be 64 nM.
Turning to `CN(Cc1ccccc1)C1=CC(=O)c2ccccc2C1=O` [Compound 2k, 2-(benzyl(methyl)amino)naphthalene-1,4-dione], in the data set on HT22 cells [3], the “Safety Index TC50/PC50” value amounted to 781 and the CC50 was more than 100000 nM. Moreover, the EC50 in the data set with HT22 cells [2] (setting [5]) was 128 nM.
As to `O=C1C=C(NCCc2ccccc2)C(=O)c2ccccc21` [Compound 2l], in the data set with HT22 cells [3], the “Safety Index TC50/PC50” value was 171 and the CC50 is more than 100000 nM. The EC50 in the data set with HT22 cells [2] (setting [5]) amounted to 584 nM.
On the same counts, the results for `O=C1C=C(NCc2ccncc2)C(=O)c2ccccc21` [Compound 2m, 2-((pyridin-4-ylmethyl)amino)naphthalene-1,4-dione] are 1,111, 80000 nM and 72 nM.
For the molecule `O=C1C=C(NCc2cccnc2)C(=O)c2ccccc21` [Compound 2n, 2-((pyridin-3-ylmethyl)amino)naphthalene-1,4-dione], in the data set on HT22 cells [3], the “Safety Index TC50/PC50” value came to 172 and the CC50 was 37000 nM. The EC50 in the data set with HT22 cells [2] (setting [5]) came out at 215 nM.
With `O=C1C=C(NCc2ccccn2)C(=O)c2ccccc21` [Compound 2o, 2-((pyridin-2-ylmethyl)amino)naphthalene-1,4-dione], in the data set with HT22 cells [3], the “Safety Index TC50/PC50” value is given as 54 and the CC50 came out at 50000 nM. In the data set with HT22 cells [2] (setting [5]), the EC50 stood at 933 nM.
With `O=C1C=C(NCc2ccc(Cl)cc2)C(=O)c2ccccc21` [Compound 2p, 2-((4-chlorobenzyl)amino)naphthalene-1,4-dione], in the data set on HT22 cells [3], the “Safety Index TC50/PC50” value is given as 1,695 and the CC50 was more than 100000 nM. Also, in the data set with HT22 cells [2] (setting [5]), the EC50 was found to be 59 nM.
As to `Cc1ccc(CNC2=CC(=O)c3ccccc3C2=O)cc1` [Compound 2r, 2-((4-methylbenzyl)amino)naphthalene-1,4-dione], in the data set with HT22 cells [3], the “Safety Index TC50/PC50” value was 1,515 and the CC50 is more than 100000 nM. For the same molecule, in the data set on HT22 cells [2] (HT-22, 24 h), the EC50 was 66 nM.
As for `COc1ccc(CNC2=CC(=O)c3ccccc3C2=O)cc1` [Compound 2s, 2-((4-methoxybenzyl)amino)naphthalene-1,4-dione], in the data set with HT22 cells [3], the “Safety Index TC50/PC50” value stood at 877 and the CC50 was more than 100000 nM. Further, the EC50 in the data set on HT22 cells [2] (setting [5]) was 114 nM.
On the same counts, the results for `COC(=O)c1ccc(CNC2=CC(=O)c3ccccc3C2=O)cc1` [Compound 2t, methyl 4-(((1,4-dioxo-1,4-dihydronaphthalen-2-yl)amino)methyl)benzoate] are 431, more than 100000 nM and 232 nM.
In the case of `O=C1C=C(NCc2cccc(C(F)(F)F)c2)C(=O)c2ccccc21` [Compound 2u, 2-((3-(trifluoromethyl)benzyl)amino)naphthalene-1,4-dione], in the data set on HT22 cells [3], the “Safety Index TC50/PC50” value is 2,222 and the CC50 is more than 100000 nM. Also, the EC50 with HT22 cells [2] (setting [5]) was determined as 45 nM.
For `O=C1C=C(NCc2ccc(Cl)c(Cl)c2)C(=O)c2ccccc21` [Compound 2v, 2-((3,4-dichlorobenzyl)amino)naphthalene-1,4-dione] the same measures were 2,174, more than 100000 nM and 46 nM.
For the molecule `CC(=O)NC1=CC(=O)c2ccccc2C1=O` [Compound 3a, N-(1,4-dioxo-1,4-dihydronaphthalen-2-yl)acetamide], in the data set on HT22 cells [3], the “Safety Index TC50/PC50” value is 162. Besides, the CC50 at 24 h in data set [1] is more than 100000 nM. For the same molecule, in the data set on HT22 cells [2] (setting [5]), the EC50 worked out at 616 nM.
On the same counts, the results for `CCC(=O)NC1=CC(=O)c2ccccc2C1=O` [Compound 3b, N-(1,4-dioxo-1,4-dihydronaphthalen-2-yl)propionamide] are 105, 80000 nM and 760 nM.
Take `COC(=O)NC1=CC(=O)c2ccccc2C1=O` [Compound 3c, methyl(1,4-dioxo-1,4-dihydronaphthalen-2-yl)carbamate]: the “Safety Index TC50/PC50” value in the data set on HT22 cells [3] was 72. Further, the CC50 at 24 h in data set [1] worked out at 5000 nM. Besides, the EC50 in the data set on HT22 cells [2] (setting [5]) is 69 nM.

The values are drawn from patent US10391070B2, “Compositions and methods for treating neurological diseases or injury” (MUSC FOUNDATION FOR RESEARCH DEVELOPMENT, priority 2012, dated 2019).
